29 molecules from ChEMBL document CHEMBL3576831, “Discovery of a Selective TRPM8 Antagonist with Clinical Efficacy in Cold-Related Pain” (ACS Med Chem Lett, 2015) can be followed below.

Series [1] concerns the target Transient receptor potential cation channel subfamily M member 8 (Homo sapiens, UniProt Q7Z2W7). The series is described as follows: Antagonist activity against human recombinant TRPM8 expressed in CHO T-rex cells assessed as inhibition of WS12-induced calcium response pre-incubated for 20 mins before WS12 addition. In kind it is cell-based.
Another series addresses T1, CYP1A2 (Homo sapiens, UniProt P05177).
T1 sequence (P05177 whole entry): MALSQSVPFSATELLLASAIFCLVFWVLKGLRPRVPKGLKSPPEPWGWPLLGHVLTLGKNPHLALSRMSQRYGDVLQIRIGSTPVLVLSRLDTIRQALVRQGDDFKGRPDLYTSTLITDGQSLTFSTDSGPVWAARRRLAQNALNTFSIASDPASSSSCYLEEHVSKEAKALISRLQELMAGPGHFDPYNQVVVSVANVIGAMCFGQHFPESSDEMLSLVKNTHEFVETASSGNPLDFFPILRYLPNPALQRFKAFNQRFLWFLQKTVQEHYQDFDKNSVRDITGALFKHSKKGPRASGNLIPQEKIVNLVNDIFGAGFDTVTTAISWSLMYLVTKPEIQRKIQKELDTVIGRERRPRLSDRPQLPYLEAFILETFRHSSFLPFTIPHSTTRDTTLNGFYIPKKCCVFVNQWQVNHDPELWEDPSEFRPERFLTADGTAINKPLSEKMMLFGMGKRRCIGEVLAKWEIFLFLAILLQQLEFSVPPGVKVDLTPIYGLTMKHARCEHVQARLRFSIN
Briefly: Inhibition of CYP1A2 (unknown origin) at 3 uM. Type of series: ADME.

A short description of series [2]: Intrinsic clearance in human liver microsomes. Type of series: ADME. As to conditions: read-out: CLH. Background: Microsomes from liver hold many membrane-bound enzymes, among them those of drug oxidation.
A further series concerns the target CYP2C9 (Homo sapiens, UniProt P11712). The series is described as follows: Inhibition of CYP2C9 (unknown origin) at 3 uM. Type of series: ADME.
The target of another series is T2, CYP2C8 (Homo sapiens, UniProt P10632).
T2 sequence (P10632 whole entry): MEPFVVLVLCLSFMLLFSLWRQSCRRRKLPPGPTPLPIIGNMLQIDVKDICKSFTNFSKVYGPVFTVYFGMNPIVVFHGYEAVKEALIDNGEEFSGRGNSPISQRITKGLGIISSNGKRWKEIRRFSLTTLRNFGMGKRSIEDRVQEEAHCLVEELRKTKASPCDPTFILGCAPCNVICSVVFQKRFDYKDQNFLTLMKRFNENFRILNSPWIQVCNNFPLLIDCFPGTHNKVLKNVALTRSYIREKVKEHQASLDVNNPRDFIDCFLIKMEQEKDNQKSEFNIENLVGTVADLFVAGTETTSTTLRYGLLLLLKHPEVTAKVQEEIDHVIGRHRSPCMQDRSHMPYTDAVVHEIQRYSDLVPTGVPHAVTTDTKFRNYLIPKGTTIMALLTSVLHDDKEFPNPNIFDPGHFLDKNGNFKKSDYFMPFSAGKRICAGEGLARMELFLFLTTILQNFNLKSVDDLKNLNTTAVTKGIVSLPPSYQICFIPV
The series is described as follows: Inhibition of CYP2C8 (unknown origin) at 3 uM. Type of series: ADME.

Series [3] is described as follows: Lipophilicity, log D of the compound. In kind it is physicochemical. The settings on record: octanol/water.
Another series has as its system Hepatocyte. Briefly: Intrinsic clearance in human hepatocytes assessed per million cells. Type of series: ADME, cell-based.
The target of a further series is CYP2D6 (Homo sapiens, UniProt P10635). The series is described as follows: Inhibition of CYP2D6 (unknown origin) at 3 uM. Type of series: ADME.
A further series concerns Liver microsome. The series is described as follows: Intrinsic clearance in rat liver microsomes. Type of series: ADME.
The target of a further series is CYP3A4 (Homo sapiens, UniProt P08684). Briefly: Inhibition of CYP3A4 (unknown origin) at 3 uM. In kind it is ADME.
Series [4] deals with Voltage-gated inwardly rectifying potassium channel KCNH2 (Homo sapiens, UniProt Q12809). The series is described as follows: Inhibition of dofetilide binding to human ERG.
Voltage-gated inwardly rectifying potassium channel KCNH2, sequence (Q12809 whole entry): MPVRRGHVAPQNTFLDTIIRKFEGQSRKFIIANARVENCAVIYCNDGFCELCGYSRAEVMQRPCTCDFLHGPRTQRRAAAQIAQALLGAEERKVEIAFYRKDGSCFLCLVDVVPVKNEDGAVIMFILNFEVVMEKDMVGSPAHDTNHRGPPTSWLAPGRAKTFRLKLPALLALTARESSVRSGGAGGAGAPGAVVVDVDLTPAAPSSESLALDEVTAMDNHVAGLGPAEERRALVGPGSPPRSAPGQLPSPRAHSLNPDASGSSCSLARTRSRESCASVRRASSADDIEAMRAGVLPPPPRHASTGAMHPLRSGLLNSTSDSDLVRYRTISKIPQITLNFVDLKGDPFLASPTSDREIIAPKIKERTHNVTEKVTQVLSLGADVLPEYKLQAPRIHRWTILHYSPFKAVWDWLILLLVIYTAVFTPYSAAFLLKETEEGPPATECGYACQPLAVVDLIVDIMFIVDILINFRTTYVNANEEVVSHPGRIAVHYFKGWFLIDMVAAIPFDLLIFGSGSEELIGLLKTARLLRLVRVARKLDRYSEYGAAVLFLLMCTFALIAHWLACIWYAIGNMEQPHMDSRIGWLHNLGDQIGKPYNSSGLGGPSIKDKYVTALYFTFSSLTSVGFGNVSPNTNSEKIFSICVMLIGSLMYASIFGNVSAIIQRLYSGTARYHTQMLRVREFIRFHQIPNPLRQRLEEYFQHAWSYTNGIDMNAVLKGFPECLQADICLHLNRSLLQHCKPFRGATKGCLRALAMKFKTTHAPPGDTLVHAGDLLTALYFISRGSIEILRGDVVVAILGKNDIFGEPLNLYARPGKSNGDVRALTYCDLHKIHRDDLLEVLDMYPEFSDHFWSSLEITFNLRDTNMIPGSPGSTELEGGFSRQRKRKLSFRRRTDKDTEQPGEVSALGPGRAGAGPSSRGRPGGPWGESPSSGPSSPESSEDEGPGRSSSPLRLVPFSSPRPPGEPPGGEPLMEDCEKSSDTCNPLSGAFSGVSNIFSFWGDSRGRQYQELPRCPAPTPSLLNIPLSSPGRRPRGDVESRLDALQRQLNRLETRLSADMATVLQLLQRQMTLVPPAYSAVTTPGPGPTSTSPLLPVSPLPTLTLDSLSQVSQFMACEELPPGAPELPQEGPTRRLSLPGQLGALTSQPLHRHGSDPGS

CYP2C9, sequence (P11712 whole entry): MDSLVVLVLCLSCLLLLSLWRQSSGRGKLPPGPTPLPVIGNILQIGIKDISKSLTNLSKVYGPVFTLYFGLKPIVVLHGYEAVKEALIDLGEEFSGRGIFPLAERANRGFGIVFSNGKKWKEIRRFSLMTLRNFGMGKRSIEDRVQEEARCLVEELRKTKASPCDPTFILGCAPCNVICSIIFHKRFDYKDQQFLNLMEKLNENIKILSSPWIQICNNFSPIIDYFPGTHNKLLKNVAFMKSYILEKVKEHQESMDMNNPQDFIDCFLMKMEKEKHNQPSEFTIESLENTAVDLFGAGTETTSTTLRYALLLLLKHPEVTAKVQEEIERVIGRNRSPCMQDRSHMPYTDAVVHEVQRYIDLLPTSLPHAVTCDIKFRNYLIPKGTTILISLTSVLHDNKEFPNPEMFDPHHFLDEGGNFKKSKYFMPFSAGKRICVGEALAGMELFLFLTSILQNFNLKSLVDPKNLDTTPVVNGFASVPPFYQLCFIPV
CYP3A4, sequence (P08684 whole entry): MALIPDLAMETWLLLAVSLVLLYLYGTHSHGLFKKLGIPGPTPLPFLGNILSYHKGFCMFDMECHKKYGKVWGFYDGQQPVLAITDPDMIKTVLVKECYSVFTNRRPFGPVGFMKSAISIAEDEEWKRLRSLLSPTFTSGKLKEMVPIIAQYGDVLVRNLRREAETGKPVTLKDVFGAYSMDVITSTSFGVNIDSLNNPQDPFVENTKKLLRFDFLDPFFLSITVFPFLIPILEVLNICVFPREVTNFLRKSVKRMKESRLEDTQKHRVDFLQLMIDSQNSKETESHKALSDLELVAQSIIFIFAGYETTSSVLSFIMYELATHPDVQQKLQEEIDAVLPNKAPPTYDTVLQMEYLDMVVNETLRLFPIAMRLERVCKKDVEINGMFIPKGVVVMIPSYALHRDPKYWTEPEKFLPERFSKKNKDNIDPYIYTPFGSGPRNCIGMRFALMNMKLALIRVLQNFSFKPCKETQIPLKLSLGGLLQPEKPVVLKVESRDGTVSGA
CYP2D6, sequence (P10635 whole entry): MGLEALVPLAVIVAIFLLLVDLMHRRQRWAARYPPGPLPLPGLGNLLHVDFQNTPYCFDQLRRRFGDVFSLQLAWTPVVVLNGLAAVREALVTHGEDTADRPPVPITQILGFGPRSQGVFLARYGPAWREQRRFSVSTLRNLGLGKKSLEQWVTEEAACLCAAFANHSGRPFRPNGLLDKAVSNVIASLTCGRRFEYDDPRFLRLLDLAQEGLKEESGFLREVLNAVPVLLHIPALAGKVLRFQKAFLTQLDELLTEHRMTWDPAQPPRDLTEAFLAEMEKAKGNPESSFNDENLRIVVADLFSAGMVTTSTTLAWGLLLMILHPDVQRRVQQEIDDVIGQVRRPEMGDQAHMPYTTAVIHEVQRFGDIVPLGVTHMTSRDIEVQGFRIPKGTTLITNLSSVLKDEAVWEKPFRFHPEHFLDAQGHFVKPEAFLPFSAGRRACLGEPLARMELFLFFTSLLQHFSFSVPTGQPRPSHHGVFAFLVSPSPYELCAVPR
Transient receptor potential cation channel subfamily M member 8, sequence (Q7Z2W7 whole entry): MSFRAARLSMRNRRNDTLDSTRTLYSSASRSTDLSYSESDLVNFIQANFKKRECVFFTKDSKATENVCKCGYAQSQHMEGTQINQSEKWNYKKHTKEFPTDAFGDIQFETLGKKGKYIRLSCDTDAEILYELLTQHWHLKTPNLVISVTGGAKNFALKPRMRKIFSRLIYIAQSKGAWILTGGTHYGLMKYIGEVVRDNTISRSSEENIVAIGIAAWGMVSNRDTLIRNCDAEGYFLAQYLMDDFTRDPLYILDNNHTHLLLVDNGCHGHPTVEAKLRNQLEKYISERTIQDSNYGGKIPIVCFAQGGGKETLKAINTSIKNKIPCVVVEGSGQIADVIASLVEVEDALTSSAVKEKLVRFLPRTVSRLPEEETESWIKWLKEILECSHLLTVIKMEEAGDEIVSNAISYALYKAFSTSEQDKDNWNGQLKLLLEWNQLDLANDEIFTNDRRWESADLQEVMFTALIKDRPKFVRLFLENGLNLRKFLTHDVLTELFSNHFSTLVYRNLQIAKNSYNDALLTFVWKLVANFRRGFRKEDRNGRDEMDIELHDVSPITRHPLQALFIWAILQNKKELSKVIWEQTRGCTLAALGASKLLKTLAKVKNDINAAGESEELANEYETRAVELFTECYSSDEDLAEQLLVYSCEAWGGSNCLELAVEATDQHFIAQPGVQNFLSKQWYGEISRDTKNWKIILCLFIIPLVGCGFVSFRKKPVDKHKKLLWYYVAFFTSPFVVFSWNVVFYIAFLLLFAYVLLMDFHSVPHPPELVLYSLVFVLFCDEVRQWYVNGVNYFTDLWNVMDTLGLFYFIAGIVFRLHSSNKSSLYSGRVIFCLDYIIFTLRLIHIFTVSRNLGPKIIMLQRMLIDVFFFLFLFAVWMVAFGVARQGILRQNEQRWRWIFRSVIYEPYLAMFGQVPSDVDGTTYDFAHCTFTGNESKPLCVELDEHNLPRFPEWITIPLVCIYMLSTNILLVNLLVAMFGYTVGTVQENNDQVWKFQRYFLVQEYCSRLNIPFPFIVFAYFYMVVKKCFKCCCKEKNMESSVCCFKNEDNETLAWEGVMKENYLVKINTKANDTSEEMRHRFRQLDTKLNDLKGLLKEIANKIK

For the molecule `CC(c1ccc(F)cc1)N(Cc1cccc(C(=O)O)c1)C(=O)C1Cc2ccccc2C1` (racemic), in series [1], the IC50 was more than 5000 nM.

Take `C[C@H](c1ccc(F)cc1F)N(Cc1cccc(C(=O)O)c1)C(=O)c1cnc2ccccc2c1`: the IC50 in series [1] was found to be 288 nM.

`CC[C@H](c1ccc(F)cc1F)N(Cc1cccc(C(=O)O)c1)C(=O)c1cc2ccccn2n1`: the inhibition at 3 µM against CYP1A2, against CYP2C9, on CYP2C8, against CYP2D6 and on CYP3A4 was 0% throughout. Besides, the microsomal CLint in series [2] came out at 28 µL/min/mg; with Liver microsome, 41 µL/min/mg. In addition, the IC50 in [1] is 123 nM. In series [3], this molecule came in with a logD of 1.2. The molecule also returned a hepatocyte intrinsic clearance in the series with Hepatocyte of 48 µL/min/million cells.

On to `C[C@H](c1ccc(F)cc1)N(Cc1cccc(C(=O)O)c1)C(=O)c1ccc(Oc2ccccc2)cc1`, for which the concentration for half-maximal inhibition (IC50) in series [1] is more than 6170 nM.

Regarding `C[C@H](c1ccc(F)cc1)N(Cc1cccc(C(=O)O)n1)C(=O)c1cnc2ccccc2c1`, the IC50 in [1] came out at 1160 nM.

As to `C[C@H](c1ccc(F)cc1)N(Cc1cccc(C(=O)O)c1)C(=O)c1cc2cc[nH]c2cn1`, the IC50 in series [1] is 951 nM.

For the molecule `C[C@H](c1ccc(F)cc1)N(Cc1cccc(C(=O)O)c1)C(=O)c1cn2ccccc2n1`, the IC50 in series [1] worked out at 307 nM. Moreover, the logD in series [3] turned out to be 0.6. In [4], the Ki is more than 9180 nM. The molecule further came in with a microsomal CLint in the series on Liver microsome of 113 µL/min/mg.

As for `C[C@H](c1ccc(F)cc1F)N(Cc1cccc(C(=O)O)n1)C(=O)c1cc2ccccc2cn1`, the inhibition at 3 µM on CYP1A2, against CYP2C9, on CYP2C8, on CYP2D6 and against CYP3A4 was 0% in each case. For the same molecule, the microsomal CLint in [2] was 11 µL/min/mg; in the series with Liver microsome, 31 µL/min/mg. In addition, the IC50 in series [1] was determined as 190 nM. The logD in [3] is 0.4. The hepatocyte intrinsic clearance in the series with Hepatocyte was less than 2.2 µL/min/million cells.

`C[C@H](c1ccc(F)cc1)N(Cc1cccc(-c2nn[nH]n2)c1)C(=O)c1cnc2ccccc2c1`: the IC50 in series [1] worked out at 1610 nM.

As to `CC[C@H](c1ccc(F)cc1)N(Cc1cccc(C(=O)O)c1)C(=O)c1cnc2ccccc2c1`, the microsomal CLint is less than 8 µL/min/mg in series [2] and less than 14 µL/min/mg in the series on Liver microsome. Also, in series [1], the IC50 was determined as 202 nM. The molecule also showed a logD in [3] of 1.3. In addition, the Ki in [4] is more than 15200 nM. In addition, the hepatocyte intrinsic clearance in the series with Hepatocyte amounted to 28 µL/min/million cells.

In the case of `COc1ccc(C(C)N(Cc2cccc(C(=O)O)c2)C(=O)c2cnc3ccccc3c2)cc1` (centres undefined), the IC50 in series [1] was 6100 nM.

For `C[C@H](c1ccc(F)cc1F)N(Cc1cccc(C(=O)O)c1)C(=O)c1cc2ccccc2cn1`, the inhibition at 3 µM on CYP1A2, against CYP2C9, on CYP2C8, at CYP2D6 and against CYP3A4 was 0% each time. For the same molecule, the microsomal CLint in series [2] turned out to be 11 µL/min/mg; with Liver microsome, 31 µL/min/mg. Moreover, in [1], the IC50 came to 60 nM. This molecule also showed a logD in [3] of 1.1. The molecule further registered a hepatocyte intrinsic clearance in the series with Hepatocyte of less than 2 µL/min/million cells.

For `Cc1ccc(CN(C(=O)c2cnc3ccccc3c2)[C@H](C)c2ccc(F)cc2)cc1C(=O)O`, the IC50 in series [1] was more than 7820 nM.

Regarding `C[C@H](c1ccc(F)cc1)N(Cc1cccc(C(=O)O)c1)C(=O)c1cc2ccccn2n1`, the microsomal CLint turned out to be 42 µL/min/mg in series [2] and 325 µL/min/mg in the series on Liver microsome. Besides, the IC50 in series [1] came to 94 nM. Moreover, the logD in series [3] was determined as 0.9. Besides, the Ki in series [4] was more than 9180 nM. The molecule further displayed a hepatocyte intrinsic clearance with Hepatocyte of 23 µL/min/million cells.

Consider `CC(C)(c1ccc(F)cc1)N(Cc1cccc(C(=O)O)c1)C(=O)c1cnc2ccccc2c1`, for which the IC50 in [1] was more than 10000 nM.

On to `C[C@H](c1ccc(F)cc1F)N(Cc1cccc(C(=O)O)c1)C(=O)c1cc2ccccn2n1`, for which the microsomal CLint in series [2] stood at 23 µL/min/mg; in the series with Liver microsome, 85 µL/min/mg. The IC50 in [1] is 234 nM. Also, the logD in series [3] came out at 0.9. In the series with Hepatocyte, this molecule came in with a hepatocyte intrinsic clearance of 31 µL/min/million cells.

Regarding `C[C@H](c1ccc(F)cc1)N(Cc1cccc(C(=O)O)c1)C(=O)c1cccc(-c2ccccc2)c1`, the IC50 in series [1] was 837 nM.

Consider `C[C@H](c1ccc(F)cc1)N(Cc1cccc(C(=O)O)c1)C(=O)c1cc2ccccc2s1`, for which the IC50 in series [1] was determined as 145 nM.

For `CC[C@H](c1ccc(C)o1)N(Cc1cccc(C(=O)O)c1)C(=O)c1cnc2ccccc2c1`, the IC50 in series [1] came out at 328 nM.

Take `C[C@H](c1ccc(F)cc1)N(Cc1ccc(F)c(C(=O)O)c1)C(=O)c1cnc2ccccc2c1`: in [1], the 50% inhibitory concentration (IC50) was 3280 nM.

In the case of `C[C@H](c1ccc(F)cc1)N(Cc1cccc(C(=O)O)c1)C(=O)c1cc2ccccc2cn1`, the microsomal CLint was 16 µL/min/mg in series [2] and 166 µL/min/mg in the series on Liver microsome. Also, the IC50 in [1] is 90 nM. The logD in series [3] came to 1.1. For the same molecule, the Ki in [4] is more than 9180 nM. Moreover, the hepatocyte intrinsic clearance in the series with Hepatocyte turned out to be 21 µL/min/million cells.

With `C[C@H](c1cccc(Cl)c1)N(Cc1cccc(C(=O)O)c1)C(=O)c1cnc2ccccc2c1`, the inhibition at 3 µM against CYP1A2, against CYP2C9, at CYP2C8, on CYP2D6 and on CYP3A4 was 0% each time. In addition, the microsomal CLint in series [2] turned out to be 10 µL/min/mg; in the series with Liver microsome, 102 µL/min/mg. Also, in [1], the IC50 was found to be 62 nM. The molecule further returned a logD in series [3] of 1.5. This molecule yielded a hepatocyte intrinsic clearance in the series on Hepatocyte of 45 µL/min/million cells.

For `C[C@H](c1ccc(F)cc1)N(Cc1cccc(C(=O)O)c1)C(=O)Cc1cccc(Cl)c1`, in series [1], the IC50 is more than 10000 nM.

Consider `O=C(O)c1cccc(CN(C(=O)c2cnc3ccccc3c2)[C@H](CO)c2ccccc2)c1`, for which the IC50 in series [1] was more than 6860 nM.

For the molecule `C[C@H](c1ccc(F)cc1)N(Cc1cccc(C(=O)O)c1)C(=O)c1cc2ccccc2nn1`, the microsomal CLint in series [2] is less than 8 µL/min/mg; in the series with Liver microsome it was 76 µL/min/mg. For the same molecule, in [1], the IC50 was 340 nM.

For the molecule `CC(c1ccc(F)cc1)N(Cc1cccc(C(=O)O)c1)C(=O)c1ccc2c(c1)CCO2` (racemic), the 50% inhibitory concentration (IC50) in series [1] was determined as 3620 nM.

For `C[C@H](c1ccc(F)cc1)N(Cc1cccc(CC(=O)O)c1)C(=O)c1cnc2ccccc2c1`, in [1], the IC50 was more than 3250 nM.

As to `O=C(O)c1cccc(CN(Cc2ccc(F)cc2)C(=O)c2cnc3ccccc3c2)c1`, in [1], the IC50 is more than 9360 nM.

`C[C@H](c1ccc(F)cc1)N(Cc1cc(C(=O)O)ccc1F)C(=O)c1cnc2ccccc2c1`: the IC50 in series [1] was determined as 446 nM.

What is called IC50 is the concentration at which inhibition is half-maximal. For orientation: inhibition means the relative decrease from the control value, in per cent. Higher therefore signals strong suppression. What is called logD is lipophilicity at a set pH, counting ionised and neutral species. Read a high logD as a more lipophilic compound. The Ki is a measure of affinity in units of concentration, obtained from inhibition or displacement. Lower therefore signals higher affinity.
